# Reference: patent US20200277268A1, “PENTAFLUOROPHENYL SULFONAMIDE COMPOUNDS, COMPOSITIONS AND USES THEREOF” (DALRIADA THERAPEUTICS INC., priority 2017, published 2020)
# pIC50: −log10 of the molar value.
# Assays:
# [1] = system: UFMylation pathway (UBA5, UFC1, UFM1, c-Myc) in MV4-11 cells; experiment: Western blot of UFMylation pathway in MV4-11 cells; format: cell-based; details: 8 hours
# Protocol: Post-treatment (8 hours) of MV4-11 cells with I-1 test compound at 1, 0.5, 0.25, 0.1 and 0 μM concentrations, all cells were lysed with radioimmunoprecipitation assay (RIPA) buffer: 20 mM Tris pH 7.4, 150 mM NaCl, 0.5% deoxycholate, 1% Triton X-100, 0.1% sodium dodecyl sulfate (SDS). Total protein was measured using BCA assay (Sigma). In each assay, clarified protein were resolved on a 4%-15% polyacrylamideSDS gel and transferred to a PVDF membrane (Bio-Rad). The membranes were blocked with 5% solution of skim milk powder in TBST and incubated for at least 1 hour followed by an overnight incubation at 4° C. in primary antibody (1:1000 dilution). Blots were probed with antibodies against UBA5, UFM1, UFC1, c-Myc, and beta-actin was used as a loading control (Santa Cruz Biotechnology catalog # sc-835). The PVDF membrane then washed with TBST (3 times for 5 minutes). A horseradish peroxides (HRP)-conjugated goat anti-mouse IgG secondary antibodies (Cell signaling Catalog #7076S) was applied to the membrane (1:5000 dilution) and incubated for 1 hour at room temperature. The blots were then rinsed again 3 times in TBST for 10 minutes. Bands were visualized using clarity western ECL substrate luminal/enhancer solution and peroxide solution 1:1 ratio for HRP secondary antibody, according to the manufacturer's instructions (Bio-Rad) and analyzed using Image lab software (Bio-Rad).
# [2] = Intrinsic clearance in mouse hepatocytes
# Protocol: A stock of 100 μM test compound was prepared by diluting the 10 mM I-1 test compound in DMSO with a solution of 50% acetonitrile and 50% water. In a 96-well non-coated plate, 198 μL of hepatocytes was pipetted, and the plate was placed in the incubator on an orbital shaker to allow the hepatocytes to warm for 10 minutes. To this solution 2 μL of the 100 μM I-1 was added to start the reaction, and the plate was placed on an orbital shaker. […] The reaction solution was then vortexed for 10 minutes and centrifuged at 4,000 rpm for 30 minutes at 4° C. Next, 400 μL of the supernatant was transferred to one new 96-well plate, centrifuged at 4,000 rpm for 30 minutes at 4° C., and 100 μL of the supernatant was transferred to a new 96-well plate ensuring the pellet was not disturbed. 100 μL of ultrapure water was added to all samples for analysis by LC-MS/MS.
# Injection volume was 10 μL.
# [3] = system: healthy human lung cells (MRC9); experiment: CellTiter-Blue cell viability, MRC9; format: cell-based; details: non-cancerous, 72 hours
# Protocol: (§1) The anti-cancer efficacy of exemplary compounds of the application were assessed in vitro against different cancer cell lines. Cell viability was examined following treatment at various concentrations of inhibitor (0.097656-50 μM) using a CellTiter-Blue® cell viability assay. 1×10^4 cells/well were plated in 96-well assay plates in culture medium. All cells were grown in DMEM, IMDM and RPMI-1640 supplemented with 10% fetal bovine serum (FBS). In some instances, FBS was removed for periods ranging from 16-24 hours, and re-introduced with test compound addition. After 24 hrs, test compounds and vehicle controls were added to appropriate wells such that the final volume was 100 μl in each well. The cells were cultured for the desired test exposure period (72 hours) at 37° C. and 5% CO2. The assay plates were removed from 3° C. incubator and 20 μl/well of CellTiter-Blue® Reagent was added. The plates were incubated using standard cell culture conditions for 1-4 hours. Afterwards, the plates were shaken for 10 seconds and florescence was recorded at 560/590 nm using a Cytation 3 spectrophotometer. IC50 values were determined using non-linear regression analysis with GraphPad Prism 6.0 (GraphPad Software Inc.).
# AR230R = experiment: Cell viability, CML AR230R; format: cell-based; details: Table 4
# Protocol: as §1, with “Inc.). […]” for “Inc.).”
# D458 = experiment: Cell viability, medulloblastoma D458; format: cell-based; details: medulloblastoma cell line
# Protocol: as §1, with “Inc.). […]” for “Inc.).”
# [4] = system: primary human fibroblast cells (PHF); experiment: CellTiter-Blue cell viability, PHF; format: cell-based; details: non-cancerous, 72 hours
# Protocol: as §1
# LN-229 = experiment: Cell viability, glioblastoma LN-229; format: cell-based; details: Homo sapiens, glioblastoma cell line
# Protocol: as §1, with “Cell viability was examined following treatment at various concentrations of inhibitor (0.097656-50 μM) using a CellTiter-Blue® cell viability assay.” left out, “All cells were grown in DMEM, IMDM and RPMI-1640 supplemented with 10% fetal bovine serum (FBS).” left out
# OCI-AML3 = experiment: Cell viability, AML OCI-AML3; format: cell-based; details: Homo sapiens, OCI-AML-3, Table 4
# Protocol: as §1, with “Inc.). […]” for “Inc.).”
# AR230 = experiment: Cell viability, CML AR230; format: cell-based; details: Table 4
# Protocol: as §1, with “Inc.). […]” for “Inc.).”
# hERG channel = hERG channel (Homo sapiens, UniProt Q12809); experiment: cell-based
# Chain of hERG channel (Q12809 whole entry): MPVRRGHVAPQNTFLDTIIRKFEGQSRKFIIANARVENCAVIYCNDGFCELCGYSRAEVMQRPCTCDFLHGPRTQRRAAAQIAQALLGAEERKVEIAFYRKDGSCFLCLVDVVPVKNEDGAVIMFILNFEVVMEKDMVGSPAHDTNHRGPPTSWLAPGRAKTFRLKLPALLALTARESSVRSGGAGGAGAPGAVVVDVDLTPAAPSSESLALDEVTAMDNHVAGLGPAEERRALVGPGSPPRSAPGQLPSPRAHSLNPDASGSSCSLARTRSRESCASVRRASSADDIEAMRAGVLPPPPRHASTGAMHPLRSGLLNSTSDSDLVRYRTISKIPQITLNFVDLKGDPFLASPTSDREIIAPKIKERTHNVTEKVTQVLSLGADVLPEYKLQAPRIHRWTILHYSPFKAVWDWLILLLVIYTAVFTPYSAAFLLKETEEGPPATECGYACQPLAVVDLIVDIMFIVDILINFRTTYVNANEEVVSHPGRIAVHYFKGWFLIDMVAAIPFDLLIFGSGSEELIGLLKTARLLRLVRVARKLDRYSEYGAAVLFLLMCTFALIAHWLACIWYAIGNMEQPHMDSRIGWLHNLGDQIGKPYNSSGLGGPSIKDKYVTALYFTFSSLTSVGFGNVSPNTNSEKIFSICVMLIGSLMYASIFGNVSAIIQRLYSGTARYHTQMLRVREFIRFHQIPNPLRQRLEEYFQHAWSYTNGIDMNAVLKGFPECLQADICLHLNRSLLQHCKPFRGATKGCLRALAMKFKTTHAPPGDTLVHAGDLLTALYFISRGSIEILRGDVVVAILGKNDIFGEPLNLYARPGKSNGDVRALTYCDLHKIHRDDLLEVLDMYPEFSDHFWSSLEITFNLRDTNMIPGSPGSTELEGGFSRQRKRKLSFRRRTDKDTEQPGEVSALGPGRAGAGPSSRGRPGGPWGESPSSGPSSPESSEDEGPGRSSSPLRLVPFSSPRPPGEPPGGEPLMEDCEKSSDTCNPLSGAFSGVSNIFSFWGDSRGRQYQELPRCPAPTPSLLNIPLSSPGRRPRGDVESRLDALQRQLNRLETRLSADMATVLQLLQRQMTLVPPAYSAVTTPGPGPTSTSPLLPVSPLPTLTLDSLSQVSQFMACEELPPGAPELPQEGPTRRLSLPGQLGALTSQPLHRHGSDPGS
# MOLM14 = experiment: Cell viability, AML MOLM14; format: cell-based; details: Homo sapiens, MOLM-14, Table 4
# Protocol: as §1, with “Inc.). […]” for “Inc.).”
# UBA5 = biological target: T1, UBA5 (Homo sapiens, UniProt Q9GZZ9); experiment: In vitro transthiolation assay (UFM1-UFC1 conjugate formation); format: biochemical; details: 50 nM UBA5, 3.5 hours pre-incubation, 0 to 1 μM I-1
# T1 construct: Constructs of full length human UBA5 (1-404) were cloned into a pET28b(+) vector; His-SUMO (N, cleaved yes); made in house; host or cells: E. coli BL21 (DE3) RILP
# T1 sequence (Q9GZZ9 whole entry): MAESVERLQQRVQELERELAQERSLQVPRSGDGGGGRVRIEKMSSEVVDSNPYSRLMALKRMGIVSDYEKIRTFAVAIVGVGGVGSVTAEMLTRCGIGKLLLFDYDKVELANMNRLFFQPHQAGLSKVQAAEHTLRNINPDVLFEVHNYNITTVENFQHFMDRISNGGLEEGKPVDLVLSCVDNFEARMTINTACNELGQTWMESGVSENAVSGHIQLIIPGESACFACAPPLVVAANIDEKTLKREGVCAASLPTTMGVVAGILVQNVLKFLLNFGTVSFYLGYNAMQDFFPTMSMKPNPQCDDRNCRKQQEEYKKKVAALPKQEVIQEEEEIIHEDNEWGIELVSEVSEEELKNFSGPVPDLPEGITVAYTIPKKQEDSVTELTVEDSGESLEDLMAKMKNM
# Protocol: UBA5 and test compounds were pre-incubated for a period of 8 hours at 37° C. prior to addition of other assay components. After this period, UFM1, UFC1 and ATP were introduced to initiate the reactions. Final concentrations in the reactions were 250 nM UBA5, 10 μM UFM1, 10 μM UFC1 and 100 μM ATP for total assay volumes of 20 μL, in buffer consisting of 50 mM 4-(2-hydroxyethyl)-1-piperazineethanesulfonic acid (HEPES),), 0.5 mM TCEP, 5 mM MgCl2, at pH 7.4. A final concentration of 10% (v/v) DMSO was present in all reactions. The reactions were allowed to proceed for 1 hour before stopping with 4× Laemmli buffer (Bio-Rad 1610747). Samples were then run on 4-20% non-reducing SDS-PAGE stain-free gels to separate protein conjugates. Gels were subsequently imaged using Stain-free imaging technology (Bio-Rad). Image Lab software was used to quantify the intensity of the UFM1-UFC1 conjugate bands to controls with no inhibitor present and reported as % inhibition values.
# I-1 was evaluated as well using differing transthiolation assay conditions, with a reduction in UBA5 concentration to 50 nM and a pre-incubation period of 3.5 hours at 37° C. of UBA5 with I-1. This was followed by a 30 minute reaction time after UFM1, UFC1 and ATP addition. A final concentration of 5% (v/v) DMSO was used.
compound,measurement,setting,value
"O=S(=O)(c1c(F)c(F)c(F)c(F)c1F)N(Cc1ccc(F)cc1)C1CC1 [Compound I-1, N-cyclopropyl-2,3,4,5,6-pentafluoro-N-(4-fluorobenzyl)benzenesulfonamide]",concentration at which UFM1-UFC1 conjugate levels decrease,[1],≥ 250 nM
same,concentration at which c-Myc levels decrease,[1],≥ 250 nM
same,concentration giving complete wipe-out of UBA5 total protein,[1],greater than 500 nM
same,concentration giving reduction of UBA5 total protein levels,[1],250 nM
same,half-life at 1 μM,[2],3.07 h
same,pIC50,[3],4.60
same,pIC50,AR230R,5.82
same,pIC50,D458,5.66
same,pIC50,[4],5.47
same,pIC50,LN-229,5.52
same,pIC50,OCI-AML3,5.25
same,pIC50,AR230,5.39
same,pIC50,hERG channel,4.76
same,pIC50,MOLM14,5.60 to 5.77
same,UFM1-UFC1 conjugate formation,UBA5,no conjugate formation at sub-micromolar concentrations
